Measurements: the supplement of paper PMC10307832

How the values were obtained:
Assay in all cases: relative viability (nuclei count vs DMSO), 5 days (fraction); higher = more cells survive
Trametinib + Alpelisib = compound: CC(=O)Nc1cccc(-n2c(=O)n(C3CC3)c(=O)c3c(Nc4ccc(I)cc4F)n(C)c(=O)c(C)c32)c1 [Trametinib] + Cc1nc(NC(=O)N2CCC[C@H]2C(N)=O)sc1-c1ccnc(C(C)(C)C(F)(F)F)c1 [Alpelisib] (partner 2 µM)
Method in brief: (§1)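 Dosing by pin tool came one day after lung cancer cell lines were seeded in 1536-well plates, using either one drug or a fixed anchor-drug dose plus five library-drug doses (not always all listed) in √10 steps. After 5 days, nuclei were counted on 4× images. Relative viability is treated-well nuclei count divided by vehicle-well nuclei count, and values are medians of duplicate plates.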

Trametinib + Phenformin = compound: CC(=O)Nc1cccc(-n2c(=O)n(C3CC3)c(=O)c3c(Nc4ccc(I)cc4F)n(C)c(=O)c(C)c32)c1 [Trametinib] + N=C(N)NC(=N)NCCc1ccccc1 [Phenformin] (partner 250 µM)
Method in brief: as §1

[1] = compound: CN1C=C(C2=CC=CC=C21)/C=C\3/C4=C(C=CC=N4)NC3=O + C[C@@H](Oc1cc(-c2cnn(C3CCNCC3)c2)cnc1N)c1c(Cl)ccc(F)c1Cl [Crizotinib] (partner 1 µM)
Method in brief: as §1

[2] = compound: CN1C=C(C2=CC=CC=C21)/C=C\3/C4=C(C=CC=N4)NC3=O + O=C(CCCCCCC(=O)Nc1ccccc1)NO [Vorinostat] (partner 1 µM)
Method in brief: as §1

| Cell Line | relative viability (Trametinib + Alpelisib; first compound 0.0025 µM) | relative viability (Trametinib + Alpelisib; first compound 0.007906 µM) | relative viability (Trametinib + Alpelisib; first compound 0.025 µM) | relative viability (Trametinib + Alpelisib; first compound 0.07906 µM) | relative viability (Trametinib + Alpelisib; first compound 0.25 µM) | relative viability (Trametinib + Phenformin; first compound 0.0025 µM) | relative viability (Trametinib + Phenformin; first compound 0.007906 µM) | relative viability (Trametinib + Phenformin; first compound 0.025 µM) | relative viability (Trametinib + Phenformin; first compound 0.07906 µM) | relative viability (Trametinib + Phenformin; first compound 0.25 µM) | relative viability ([1]; first compound 0.02 µM) | relative viability ([1]; first compound 0.06325 µM) | relative viability ([1]; first compound 0.2 µM) | relative viability ([1]; first compound 0.6325 µM) | relative viability ([1]; first compound 2 µM) | relative viability ([2]; first compound 0.02 µM) | relative viability ([2]; first compound 0.06325 µM) | relative viability ([2]; first compound 0.2 µM) | relative viability ([2]; first compound 0.6325 µM) | relative viability ([2]; first compound 2 µM) |
| --- | --- | --- | --- | --- | --- | --- | --- | --- | --- | --- | --- | --- | --- | --- | --- | --- | --- | --- | --- | --- |
| NCI-H2087 | 0.705 | 0.442 | 0.371 | 0.28 | 0.266 | 0.294 | 0.258 | 0.146 | 0.153 | 0.111 | 0.96 | 0.701 | 1.1 | 0.889 | 0.868 | 0.73 | 0.603 | 0.551 | 0.753 | 0.838 |
| NCI-H2126 | 0.706 | 0.608 | 0.447 | 0.527 | 0.45 | 0.501 | 0.464 | 0.419 | 0.481 | 0.466 | 0.994 | 1 | 1.06 | 1.03 | 1.02 | 0.876 | 0.719 | 0.744 | 0.748 | 0.802 |
| NCI-H2170 | 0.828 | 0.721 | – | 0.669 | 0.638 | 0.351 | 0.414 | 0.399 | 0.357 | 0.333 | – | 1.13 | 1.35 | 1.16 | 1.15 | 0.746 | 0.762 | 0.747 | 0.614 | 0.758 |
| NCI-H2228 | 0.749 | 0.527 | 0.488 | 0.331 | 0.194 | 0.319 | 0.225 | 0.152 | 0.161 | 0.138 | 0.386 | 0.489 | – | 0.373 | 0.425 | 0.85 | 0.646 | 0.503 | 0.704 | 0.508 |
| NCI-H2347 | 0.96 | 0.552 | 0.346 | 0.38 | 0.36 | 0.225 | 0.125 | 0.233 | 0.164 | 0.143 | 0.588 | 0.802 | 0.607 | 0.694 | 0.674 | 0.585 | 0.659 | 0.582 | 0.493 | 0.517 |
| NCI-H2405 | 0.599 | 0.42 | 0.339 | 0.379 | 0.315 | 0.326 | 0.316 | 0.28 | 0.202 | 0.251 | 0.769 | 0.832 | – | 0.829 | 0.821 | 1.16 | 0.913 | 0.754 | 0.98 | 0.73 |
| NCI-H3122 | 0.466 | 0.395 | 0.224 | 0.234 | 0.21 | 0.381 | 0.296 | 0.282 | 0.243 | 0.233 | 0.226 | 0.231 | 0.275 | 0.29 | 0.28 | 0.767 | 1.06 | 0.734 | 1.02 | 1 |
| PC-3 [JPC-3] | 0.998 | 0.968 | 0.864 | 0.806 | 0.511 | 0.46 | 0.463 | 0.427 | 0.405 | 0.373 | 0.878 | 0.949 | 0.954 | 0.96 | 0.966 | 0.831 | 0.798 | 0.75 | 0.612 | 0.589 |
| PC-14 | 0.994 | 0.892 | 0.949 | 0.654 | 0.46 | 0.568 | 0.531 | 0.322 | 0.212 | 0.102 | 0.91 | 0.791 | 1 | 0.856 | 0.958 | 0.759 | 0.583 | 0.728 | 0.674 | 0.744 |
| RERF-LC-KJ | 0.775 | 0.759 | 0.645 | 0.657 | 0.472 | 0.371 | 0.391 | 0.382 | 0.371 | 0.321 | 0.831 | 0.829 | 0.787 | 0.77 | 0.718 | 0.787 | 0.668 | 0.72 | 0.604 | 0.598 |
| SK-LU-1 | 0.966 | 0.841 | 0.7 | 0.361 | 0.226 | 0.482 | 0.501 | 0.288 | 0.246 | 0.164 | 0.619 | 0.809 | 1.14 | 1.07 | 1.1 | 0.67 | 0.764 | 0.729 | 0.727 | 0.831 |
| SK-MES-1 | 0.722 | 0.542 | 0.323 | 0.31 | 0.184 | 0.64 | 0.64 | 0.481 | 0.43 | 0.287 | 0.972 | 0.84 | 1.03 | 0.976 | 0.967 | 1.07 | 0.995 | 0.864 | 1.07 | 0.984 |
| SW 1573 | 0.629 | 0.619 | 0.564 | 0.457 | 0.43 | 0.29 | 0.279 | 0.255 | 0.156 | 0.15 | 0.727 | 0.832 | 0.816 | 0.712 | 0.874 | 0.73 | 0.656 | 0.787 | 0.8 | 0.882 |
